Test results published in patent US20230165873A1, “Methods of Use for Single Molecule Compounds Providing Multi-Target Inhibition to Treat Covid 19” (priority 2020, published 2023).

Columns and labels:
CDK4 cyclinD1 = CDK4 cyclinD1 (Homo sapiens, UniProt P11802); assay: CDK4 cyclinD1 in vitro inhibition; assay type: biochemical
Protocol: (§1) The kinase or bromodomain inhibitory activity of a compound of the invention can be determined by routine methods known to the skilled artisan without undue experimentation, or by procuring relevant analysis by a commercial vendor offering such services. […] In vivo, PI3K inhibition can be determined from target tissue biopsies by standard tissue processing in which cells are disrupted and Western Blot analysis is performed to determine the presence or absence of pAKT (substrate of PI3K) relative to a control sample. PI3K inhibition assays and BTK inhibition assays are known in the art and can be procured commercially through vendors such as Reaction Biology (Malvern, PA). The activity of a compound of the invention as an inhibitor of a bromodomain-containing protein, such as a BET protein, including BRD2, BRD3, BRD4, and/or BRDT, or an isoform or mutant thereof, may be determined in vitro, in vivo, or in a cell line. In vitro assays include assays that determine inhibition of bromodomain-containing proteins. Alternatively, inhibitor binding may be determined by running a competition experiment where a provided compound is incubated with a bromodomain-containing protein, such as a BET protein bound to known ligands, labeled or unlabeled. In vitro bromodomain inhibition assays can be performed using Alpha Screen Technology (Perkin Elmer Life and Analytical Sciences, Shelton, CT). In vivo bromodomain inhibition can be determined indirectly by evaluating the amount of a protein whose gene transcription is influenced or controlled by the bromodomain protein, for example, MYCN protein transcription is controlled by BRD4 (J.E. Delmore et al., Cell 2011, 146, 904-917; A. Puissant, Cancer Discov. 2013, 3, 308-323).
(§2) IC50 inhibition data against the indicated targets were determined for compounds of the invention using standard in vitro assays (Tables 8 and 9).

BRD4-1 = molecular target: T1, BRD4-1 (Homo sapiens, UniProt O60885); assay: BRD4-1 in vitro inhibition; assay type: binding
T1 construct: BRD4-1
Protocol: as §1

PI3K gamma = PI3K gamma (Homo sapiens, UniProt P48736); assay: PI3K gamma in vitro inhibition; assay type: biochemical; conditions: read-out: IC50 inhibition PI3K gamma
Protocol: as §1, §2

PI3K beta = PI3K beta (Homo sapiens, UniProt P42338); assay: PI3K beta in vitro inhibition; assay type: biochemical
Protocol: as §1

PI3K alpha = PI3K alpha (Homo sapiens, UniProt P42336); assay: PI3K alpha in vitro inhibition; assay type: biochemical
Protocol: as §1

CDK6 cyclinD1 = CDK6 cyclinD1 (Homo sapiens, UniProt Q00534); assay: CDK6 cyclinD1 in vitro inhibition; assay type: biochemical
Protocol: as §1, §2

BRD4-2 = molecular target: T2, BRD4-2 (Homo sapiens, UniProt O60885); assay: BRD4-2 in vitro inhibition; assay type: binding
T2 construct: BRD4-2
Protocol: as §1

Chain of PI3K gamma (P48736 whole entry): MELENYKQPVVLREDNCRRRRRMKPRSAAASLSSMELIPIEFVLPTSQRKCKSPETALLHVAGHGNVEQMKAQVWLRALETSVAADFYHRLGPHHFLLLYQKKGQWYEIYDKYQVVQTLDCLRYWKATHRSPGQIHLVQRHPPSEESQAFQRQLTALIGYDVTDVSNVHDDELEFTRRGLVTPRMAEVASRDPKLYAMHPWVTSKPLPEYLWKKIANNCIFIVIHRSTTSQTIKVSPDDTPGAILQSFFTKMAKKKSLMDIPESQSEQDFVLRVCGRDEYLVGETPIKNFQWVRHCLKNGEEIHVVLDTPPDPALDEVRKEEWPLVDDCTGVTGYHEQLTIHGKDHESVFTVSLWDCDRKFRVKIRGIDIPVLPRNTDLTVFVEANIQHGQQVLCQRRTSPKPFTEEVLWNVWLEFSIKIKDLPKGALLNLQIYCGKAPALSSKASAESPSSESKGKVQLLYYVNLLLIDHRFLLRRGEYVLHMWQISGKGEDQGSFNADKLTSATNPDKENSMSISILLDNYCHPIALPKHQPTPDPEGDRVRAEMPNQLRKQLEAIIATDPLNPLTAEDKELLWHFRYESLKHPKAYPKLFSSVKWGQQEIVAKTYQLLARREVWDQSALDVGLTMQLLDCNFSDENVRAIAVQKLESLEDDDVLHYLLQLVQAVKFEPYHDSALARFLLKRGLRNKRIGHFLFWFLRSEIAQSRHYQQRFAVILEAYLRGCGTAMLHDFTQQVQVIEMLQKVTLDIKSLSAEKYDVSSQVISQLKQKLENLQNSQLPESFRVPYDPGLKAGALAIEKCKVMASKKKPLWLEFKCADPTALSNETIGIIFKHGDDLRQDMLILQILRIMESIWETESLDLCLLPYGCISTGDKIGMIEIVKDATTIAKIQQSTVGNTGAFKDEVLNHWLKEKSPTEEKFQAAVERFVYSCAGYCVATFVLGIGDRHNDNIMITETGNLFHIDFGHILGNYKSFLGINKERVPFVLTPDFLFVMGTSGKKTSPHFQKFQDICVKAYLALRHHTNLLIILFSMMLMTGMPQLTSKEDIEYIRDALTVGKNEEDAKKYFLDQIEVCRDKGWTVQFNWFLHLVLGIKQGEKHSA
Chain of CDK4 cyclinD1 (P11802 whole entry): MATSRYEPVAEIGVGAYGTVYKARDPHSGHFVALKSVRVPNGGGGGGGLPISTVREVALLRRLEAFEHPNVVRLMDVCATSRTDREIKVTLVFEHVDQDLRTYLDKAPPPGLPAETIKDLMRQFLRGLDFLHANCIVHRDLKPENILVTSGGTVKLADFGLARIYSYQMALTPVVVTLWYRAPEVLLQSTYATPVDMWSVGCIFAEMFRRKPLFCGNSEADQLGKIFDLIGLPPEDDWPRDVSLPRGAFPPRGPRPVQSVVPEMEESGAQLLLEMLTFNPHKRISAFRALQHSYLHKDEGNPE
Chain of CDK4 cyclinD1 (P24385 whole entry partner): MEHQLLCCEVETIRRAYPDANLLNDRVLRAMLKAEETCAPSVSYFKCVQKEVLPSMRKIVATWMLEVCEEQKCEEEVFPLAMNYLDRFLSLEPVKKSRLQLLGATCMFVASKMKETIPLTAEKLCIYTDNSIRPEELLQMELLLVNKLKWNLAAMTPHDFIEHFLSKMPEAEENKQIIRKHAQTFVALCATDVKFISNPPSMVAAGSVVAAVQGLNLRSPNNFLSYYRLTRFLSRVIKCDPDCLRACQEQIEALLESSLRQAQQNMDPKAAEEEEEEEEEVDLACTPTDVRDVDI
Chain of PI3K alpha (P42336 whole entry): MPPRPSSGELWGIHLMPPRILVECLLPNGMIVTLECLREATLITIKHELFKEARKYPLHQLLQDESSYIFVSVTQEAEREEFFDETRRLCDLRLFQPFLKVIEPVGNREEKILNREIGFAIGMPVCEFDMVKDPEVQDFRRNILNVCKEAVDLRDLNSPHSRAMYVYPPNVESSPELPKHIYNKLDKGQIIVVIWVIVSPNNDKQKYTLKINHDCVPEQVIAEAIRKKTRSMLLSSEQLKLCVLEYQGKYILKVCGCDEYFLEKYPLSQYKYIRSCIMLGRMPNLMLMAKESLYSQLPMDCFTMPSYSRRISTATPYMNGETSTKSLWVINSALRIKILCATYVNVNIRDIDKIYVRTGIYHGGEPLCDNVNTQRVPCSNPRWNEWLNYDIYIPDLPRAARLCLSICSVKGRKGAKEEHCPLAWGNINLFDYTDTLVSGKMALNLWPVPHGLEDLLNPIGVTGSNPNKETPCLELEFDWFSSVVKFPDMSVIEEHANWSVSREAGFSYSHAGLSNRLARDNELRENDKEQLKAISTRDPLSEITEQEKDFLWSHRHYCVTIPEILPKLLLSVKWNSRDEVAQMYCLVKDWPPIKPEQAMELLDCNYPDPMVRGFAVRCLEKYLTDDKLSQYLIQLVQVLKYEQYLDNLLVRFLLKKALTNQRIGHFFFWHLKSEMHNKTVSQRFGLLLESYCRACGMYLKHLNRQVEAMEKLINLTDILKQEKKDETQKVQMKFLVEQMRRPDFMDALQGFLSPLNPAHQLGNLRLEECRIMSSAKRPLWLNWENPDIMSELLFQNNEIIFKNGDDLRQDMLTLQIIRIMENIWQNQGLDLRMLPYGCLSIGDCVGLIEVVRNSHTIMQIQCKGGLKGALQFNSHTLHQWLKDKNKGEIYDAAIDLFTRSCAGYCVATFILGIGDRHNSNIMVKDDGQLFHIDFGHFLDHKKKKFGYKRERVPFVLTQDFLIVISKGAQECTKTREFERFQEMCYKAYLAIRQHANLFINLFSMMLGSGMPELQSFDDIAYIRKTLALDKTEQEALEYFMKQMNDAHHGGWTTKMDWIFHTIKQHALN
Chain of PI3K alpha (P27986 whole entry partner): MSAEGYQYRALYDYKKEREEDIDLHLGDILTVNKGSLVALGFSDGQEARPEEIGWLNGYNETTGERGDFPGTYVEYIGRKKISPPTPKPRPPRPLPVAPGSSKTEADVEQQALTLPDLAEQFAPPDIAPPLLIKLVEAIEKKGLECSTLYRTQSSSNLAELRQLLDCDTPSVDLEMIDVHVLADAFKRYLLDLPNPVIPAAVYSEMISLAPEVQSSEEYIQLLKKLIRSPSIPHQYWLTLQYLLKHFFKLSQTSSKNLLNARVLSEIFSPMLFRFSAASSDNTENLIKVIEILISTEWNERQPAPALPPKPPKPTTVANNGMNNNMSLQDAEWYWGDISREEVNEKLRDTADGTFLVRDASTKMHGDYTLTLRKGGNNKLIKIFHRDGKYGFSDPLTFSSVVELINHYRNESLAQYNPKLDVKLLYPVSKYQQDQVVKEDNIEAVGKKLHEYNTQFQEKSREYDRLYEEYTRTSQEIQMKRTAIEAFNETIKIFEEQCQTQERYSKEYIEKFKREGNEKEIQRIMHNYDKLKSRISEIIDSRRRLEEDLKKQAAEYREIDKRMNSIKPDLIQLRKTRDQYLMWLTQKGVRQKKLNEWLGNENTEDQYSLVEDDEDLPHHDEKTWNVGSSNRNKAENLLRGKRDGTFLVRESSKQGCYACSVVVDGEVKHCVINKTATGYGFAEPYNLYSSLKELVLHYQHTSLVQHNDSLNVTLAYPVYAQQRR
Chain of CDK6 cyclinD1 (Q00534 whole entry): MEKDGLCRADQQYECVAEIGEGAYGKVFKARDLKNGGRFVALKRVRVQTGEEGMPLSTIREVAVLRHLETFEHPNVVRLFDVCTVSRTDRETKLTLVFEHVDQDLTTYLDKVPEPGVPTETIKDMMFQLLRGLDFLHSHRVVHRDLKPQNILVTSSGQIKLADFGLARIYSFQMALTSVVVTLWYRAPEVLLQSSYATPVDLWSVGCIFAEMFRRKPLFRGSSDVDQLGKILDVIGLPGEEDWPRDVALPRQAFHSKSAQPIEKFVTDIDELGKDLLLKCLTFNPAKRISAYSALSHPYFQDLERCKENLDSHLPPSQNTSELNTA
Chain of CDK6 cyclinD1 (P24385 whole entry partner): as the sequence (P24385 whole entry partner) above
Chain of PI3K beta (P42338 whole entry): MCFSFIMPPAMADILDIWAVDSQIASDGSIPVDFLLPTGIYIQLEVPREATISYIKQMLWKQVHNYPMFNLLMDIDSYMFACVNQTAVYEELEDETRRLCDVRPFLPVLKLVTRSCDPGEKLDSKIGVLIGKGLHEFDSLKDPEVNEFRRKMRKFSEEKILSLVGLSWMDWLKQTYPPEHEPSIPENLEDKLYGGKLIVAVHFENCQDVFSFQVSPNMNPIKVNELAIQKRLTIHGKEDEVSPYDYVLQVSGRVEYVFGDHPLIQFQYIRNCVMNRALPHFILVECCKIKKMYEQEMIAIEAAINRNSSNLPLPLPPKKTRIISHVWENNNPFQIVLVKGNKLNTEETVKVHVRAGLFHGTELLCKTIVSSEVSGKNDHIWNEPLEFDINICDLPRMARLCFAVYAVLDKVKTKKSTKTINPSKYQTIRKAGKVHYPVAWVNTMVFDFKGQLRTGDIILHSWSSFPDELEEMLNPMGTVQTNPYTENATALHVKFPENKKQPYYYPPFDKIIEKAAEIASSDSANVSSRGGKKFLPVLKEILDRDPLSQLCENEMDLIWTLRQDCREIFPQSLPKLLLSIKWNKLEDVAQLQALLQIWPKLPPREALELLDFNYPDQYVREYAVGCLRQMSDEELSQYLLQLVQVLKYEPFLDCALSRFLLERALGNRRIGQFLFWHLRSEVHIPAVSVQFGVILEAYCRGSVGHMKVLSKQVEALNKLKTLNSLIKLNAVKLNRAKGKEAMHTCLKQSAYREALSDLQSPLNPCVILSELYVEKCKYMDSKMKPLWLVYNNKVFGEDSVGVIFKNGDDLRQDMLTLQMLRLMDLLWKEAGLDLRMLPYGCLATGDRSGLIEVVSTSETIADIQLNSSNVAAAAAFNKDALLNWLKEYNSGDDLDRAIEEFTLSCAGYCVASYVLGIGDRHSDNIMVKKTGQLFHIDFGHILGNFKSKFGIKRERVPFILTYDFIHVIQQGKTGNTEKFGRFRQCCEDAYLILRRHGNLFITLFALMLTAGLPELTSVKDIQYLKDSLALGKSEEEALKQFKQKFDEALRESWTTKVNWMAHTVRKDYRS
Chain of PI3K beta (P27986 whole entry partner): as the sequence (P27986 whole entry partner) above

Compound	IC50 (CDK4 cyclinD1)	IC50 (BRD4-1)	IC50 (PI3K gamma)	IC50 (PI3K beta)	IC50 (PI3K alpha)	IC50 (CDK6 cyclinD1)	IC50 (BRD4-2)
CN(C)C(=O)c1cc2cnc(Nc3cncc(-c4csc5c(=O)cc(N6CCOCC6)oc45)c3)nc2n1C1CCCC1 [Compound 19]	< 0.5 µM	1 to 10 µM	1 to 10 µM	< 0.5 µM	0.5 to 1 µM	< 0.5 µM	1 to 10 µM
CN(C)C(=O)c1cc2cnc(Nc3cc(C(=O)O)cc(-c4csc5c(=O)cc(N6CCOCC6)oc45)c3)nc2n1C1CCCC1 [Compound 20]	10 to 45 µM	10 to 45 µM	> 45 µM	1 to 10 µM	1 to 10 µM	> 45 µM	> 45 µM
O=C(NCc1cccnc1)c1cc(-c2csc3c(=O)cc(N4CCNCC4)oc23)cc2c1OCCO2 [Compound 3]	–	< 0.5 µM	10 to 45 µM	1 to 10 µM	1 to 10 µM	–	1 to 10 µM
CN(C)C(=O)c1cc2cnc(Nc3ccc(-c4csc5c(=O)cc(N6CCNCC6)oc45)cc3)nc2n1C1CCCC1 [Compound 9]	< 0.5 µM	< 0.5 µM	10 to 45 µM	10 to 45 µM	10 to 45 µM	< 0.5 µM	0.5 to 1 µM
O=C(NCc1cccnc1)c1cc(-c2csc3c(=O)cc(N4CCOCC4)oc23)cc2c1OCCO2 [Compound 2]	–	< 0.5 µM	< 0.5 µM	< 0.5 µM	< 0.5 µM	–	< 0.5 µM
CN(C)C(=O)c1cc2cnc(N(c3cncc(-c4csc5c(=O)cc(N6CCOCC6)oc45)c3)c3ncc4cc(C(=O)N(C)C)n(C5CCCC5)c4n3)nc2n1C1CCCC1 [Compound 21]	< 0.5 µM	1 to 10 µM	10 to 45 µM	1 to 10 µM	1 to 10 µM	0.5 to 1 µM	1 to 10 µM
COC(=O)c1cc(-c2csc3c(=O)cc(N4CCN(C(=O)OC(C)(C)C)CC4)oc23)cc2c1OCCO2 [Compound 5]	–	< 0.5 µM	< 0.5 µM	1 to 10 µM	< 0.5 µM	–	> 45 µM
CN(C)C(=O)c1cc2cnc(Nc3ccc(-c4csc5c(=O)cc(N6CCOCC6)oc45)c(C(=O)O)c3)nc2n1C1CCCC1 [Compound 15]	1 to 10 µM	10 to 45 µM	1 to 10 µM	< 0.5 µM	< 0.5 µM	0.5 to 1 µM	10 to 45 µM
CN(C)C(=O)c1cc2cnc(Nc3ccc(-c4csc5c(=O)cc(N6CCOCC6)oc45)c(C(=O)O)c3)nc2n1C1CCCC1 [Compound 14]	10 to 45 µM	> 45 µM	< 0.5 µM	< 0.5 µM	< 0.5 µM	10 to 45 µM	10 to 45 µM
CN(C)C(=O)c1cc2cnc(Nc3cccc(-c4csc5c(=O)cc(N6CCOCC6)oc45)c3)nc2n1C1CCCC1 [Compound 18]	< 0.5 µM	1 to 10 µM	1 to 10 µM	< 0.5 µM	0.5 to 1 µM	< 0.5 µM	0.5 to 1 µM
CNC(=O)c1cc2cnc(Nc3ccc(-c4csc5c(=O)cc(N6CCOCC6)oc45)cc3)nc2n1C1CCCC1 [Compound 16]	< 0.5 µM	< 0.5 µM	1 to 10 µM	< 0.5 µM	< 0.5 µM	< 0.5 µM	< 0.5 µM
CN(C)C(=O)c1cc2cnc(Nc3ccc(-c4csc5c(=O)cc(N6CCOCC6)oc45)cc3C(=O)O)nc2n1C1CCCC1 [Compound 13]	> 45 µM	0.5 to 1 µM	0.5 to 1 µM	< 0.5 µM	< 0.5 µM	> 45 µM	0.5 to 1 µM
CN(C)C(=O)c1cc2cnc(N3CCOc4cc(-c5csc6c(=O)cc(N7CCOCC7)oc56)ccc43)nc2n1C1CCCC1 [Compound 24]	> 45 µM	–	1 to 10 µM	< 0.5 µM	< 0.5 µM	–	–
CC(C)n1c(C(=O)N(C)C)cc2cnc(Nc3ccc(-c4csc5c(=O)cc(N6CCOCC6)oc45)cc3)nc21 [Compound 25]	< 0.5 µM	< 0.5 µM	1 to 10 µM	< 0.5 µM	< 0.5 µM	< 0.5 µM	< 0.5 µM
CN(C)C(=O)c1cc2cnc(Nc3ccc(-c4csc5c(=O)cc(N6CCOCC6)oc45)cn3)nc2n1C1CCCC1 [Compound 8]	< 0.5 µM	< 0.5 µM	0.5 to 1 µM	< 0.5 µM	< 0.5 µM	< 0.5 µM	< 0.5 µM
CN(C)C(=O)c1cc2cnc(Nc3csc4c(=O)cc(N5CCOCC5)oc34)nc2n1C1CCCC1 [Compound 12]	1 to 10 µM	10 to 45 µM	> 45 µM	< 0.5 µM	1 to 10 µM	> 45 µM	10 to 45 µM
CN(C)C(=O)c1cc2cnc(Nc3ccc(-c4csc5c(=O)cc(N6CCN(C(=O)OC(C)(C)C)CC6)oc45)cc3)nc2n1C1CCCC1 [Compound 10]	< 0.5 µM	0.5 to 1 µM	1 to 10 µM	0.5 to 1 µM	1 to 10 µM	< 0.5 µM	1 to 10 µM
O=c1cc(N2CCNCC2)oc2c(-c3ccc4c(c3)OCCO4)csc12 [Compound 1]	–	< 0.5 µM	> 45 µM	10 to 45 µM	> 45 µM	–	10 to 45 µM
CN1CCN(c2cc(=O)c3scc(-c4cc5c(c(C(=O)NCc6cccnc6)c4)OCCO5)c3o2)CC1 [Compound 4]	–	< 0.5 µM	10 to 45 µM	1 to 10 µM	10 to 45 µM	–	1 to 10 µM
O=C(O)c1cc2cnc(Nc3ccc(-c4csc5c(=O)cc(N6CCOCC6)oc45)cc3)nc2n1C1CCCC1 [Compound 23]	< 0.5 µM	0.5 to 1 µM	< 0.5 µM	< 0.5 µM	< 0.5 µM	< 0.5 µM	1 to 10 µM
COC(=O)c1cc(-c2csc3c(=O)cc(N4CCOCC4)oc23)ccc1Nc1ncc2cc(C(=O)N(C)C)n(C3CCCC3)c2n1 [Compound 11]	> 45 µM	< 0.5 µM	1 to 10 µM	< 0.5 µM	< 0.5 µM	> 45 µM	1 to 10 µM
CNC(=O)c1cc2cnc(Nc3ccc(C#Cc4csc5c(=O)cc(N6CCOCC6)oc45)cc3)nc2n1C1CCCC1 [Compound 17]	< 0.5 µM	1 to 10 µM	0.5 to 1 µM	< 0.5 µM	< 0.5 µM	< 0.5 µM	10 to 45 µM
